The text below walks through data of patent US20190047966A1, “NOVEL COMPOUND AND PHARMACOLOGICALLY ACCEPTABLE SALT THEREOF” (MEIJI SEIKA PHARMA CO., LTD., priority 2016, published 2019).

Where two headings read alike, the source gives them in different places.

Assay [1] addresses T1, human histamine H4 receptor (Homo sapiens, UniProt Q9H3N8).
T1 construct: purchased PerkinElmer Inc; host or cells: CHO-K1
As to the kind of experiment: Evaluation of Human H4 Receptor Affinity ([3H]histamine binding). The following applies: inhibition constant Ki, CHO-K1 membrane preparation. The procedure, abridged:
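Membranes from CHO-K1 cells expressing human H4 receptor incubated with 8.2 nM [3H]histamine and compound for 90 min at 25 °C in 50 mM Tris-HCl pH 7.4, 1.25 mM EDTA, then filtered and counted. Nonspecific binding defined with 1.0 μM histamine; Ki from IC50 by Cheng-Prusoff using Kd 5.7 nM.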

Assay [2] addresses T2, human histamine H1 receptor (Homo sapiens, UniProt P35367). As to the kind of experiment: Evaluation of Human H1 Receptor Function (GeneBLAzer H1-NFAT-bla HEK 293T cells). The assay is classed as cell-based. Conditions: histamine 30 nM, read-out: Evaluation of H1 Receptor Function (IC50 value, antagonistic effect). As for the experimental part:
Test Example 3: Evaluation of Human H1 Receptor Function
The antagonistic effect was evaluated by the method described below. GeneBLAzer® H1-NFAT-bla HEK 293T-cells (Invitrogen Corporation, recombinant cells expressing the human histamine H1 receptor) were incubated at 37° C. for 30 minutes in the presence of the test compounds dissolved in DMSO in a high glucose Dulbecco's Modified Eagle Medium (GlutaMAX, containing 10% fetal bovine serum, 100 μM nonessential amino acids, 25 mM HEPES, 100 U/mL penicillin, and 100 μg/mL streptomycin), and histamine was added such that the final concentration became 30 nM, followed by further incubation for 4.5 hours. Then, a mixture of LiveBLAzer™ FRET-B/G Loading Kit (Invitrogen Corporation) and Solution D (Invitrogen Corporation) was added, followed by leaving to stand at room temperature for 2 hours under shaded conditions. Thereafter, the fluorescence intensity was measured under two conditions of 400 nm/460 nm and 400 nm/535 nm (excitation light/fluorescence) by using a multilabel counter (EnVision: PerkinElmer Inc.). The 50% inhibitory concentration (IC50 value) was calculated in accordance with (measured value−blank measured value at 400 nm/460 nm)/(measured value−blank measured value at 400 nm/535 nm) of each test sample.

For assay [3], the target named is T1, human histamine H4 receptor. As to the kind of experiment: Evaluation of H4 Receptor Function ([35S]GTPγS binding). It counts as biochemical. As for the experimental part: The antagonistic effect was evaluated by the method described below. Membrane preparation from recombinant CHO-K1 cell expressing the human histamine H4 receptor (PerkinElmer Inc.), 10 μM GDP, 0.1 μM histamine, and the compounds dissolved in DMSO were reacted at 30° C. for 20 minutes in a buffering solution containing 20 mM HEPES, pH 7.4, 100 mM NaCl, 10 mM MgCl2, 1 mM DTT, and 1 mM EDTA on an assay plate. Thereafter, SPA beads (Amersham plc) were added, followed by incubation for 60 minutes, and further 0.3 nM [^35S]GTPγS (PerkinElmer Inc.) was added, followed by incubation for 30 minutes.
Background: Binding of GTPγS marks nucleotide exchange on a G protein.

Assay [4] deals with T2, human histamine H1 receptor. As to the kind of experiment: Evaluation of Human H1 Receptor Affinity ([3H]pyrilamine binding). More on the design: purchased PerkinElmer Inc; host or cells: CHO-K1. Conditions: inhibition constant Ki, CHO-K1 membrane preparation. The procedure, abridged:
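Ki values are Cheng-Prusoff conversions of IC50 (Kd 1.1 nM) from radioligand displacement of 1.2 nM [3H]pyrilamine, with 1.0 μM pyrilamine defining nonspecific binding.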

[5] abbreviates: read-out: Evaluation of H4 Receptor Affinity.
Where [6] appears, read: [35S]GTPγS binding, CHO-K1 membrane, 0.1 μM histamine, read-out: Evaluation of H4 Receptor Function (IC50 value, antagonistic effect).

T2 sequence (P35367 whole entry): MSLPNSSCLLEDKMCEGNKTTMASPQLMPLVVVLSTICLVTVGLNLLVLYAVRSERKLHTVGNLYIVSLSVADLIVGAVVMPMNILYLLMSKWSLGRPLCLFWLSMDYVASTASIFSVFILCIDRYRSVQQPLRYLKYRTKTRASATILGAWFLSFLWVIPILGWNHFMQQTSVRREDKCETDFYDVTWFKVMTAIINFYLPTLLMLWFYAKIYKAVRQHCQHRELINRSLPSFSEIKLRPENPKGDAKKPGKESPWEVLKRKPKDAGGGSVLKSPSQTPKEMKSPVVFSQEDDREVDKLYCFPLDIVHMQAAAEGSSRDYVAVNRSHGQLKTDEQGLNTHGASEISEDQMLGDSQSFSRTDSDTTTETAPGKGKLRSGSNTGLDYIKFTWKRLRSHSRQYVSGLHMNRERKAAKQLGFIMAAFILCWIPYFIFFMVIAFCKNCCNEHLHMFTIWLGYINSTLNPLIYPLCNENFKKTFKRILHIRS
T1 sequence (Q9H3N8 whole entry): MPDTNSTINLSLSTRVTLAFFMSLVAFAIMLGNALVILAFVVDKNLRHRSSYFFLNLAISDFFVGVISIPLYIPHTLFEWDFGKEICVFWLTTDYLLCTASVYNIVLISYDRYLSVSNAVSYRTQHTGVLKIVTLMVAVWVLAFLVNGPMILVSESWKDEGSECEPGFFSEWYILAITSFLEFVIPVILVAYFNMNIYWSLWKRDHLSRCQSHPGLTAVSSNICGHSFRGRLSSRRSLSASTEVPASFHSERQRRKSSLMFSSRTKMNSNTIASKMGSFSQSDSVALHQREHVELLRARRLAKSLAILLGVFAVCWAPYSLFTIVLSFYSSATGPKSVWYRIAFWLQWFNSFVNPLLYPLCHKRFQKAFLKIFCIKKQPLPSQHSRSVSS

What is called IC50 is the concentration at which inhibition is half-maximal. `Nc1nc2c(c(N3CCN(CCOCc4cc(C(=O)O)ccc4F)CC3)n1)CCc1cc(OCc3ccc(Cl)cc3)ccc1-2` [129(b), 3-((2-(4-(2-amino-8-((4-chlorobenzyl)oxy)-5,6-dihydrobenzo[h]quinazolin-4-yl)piperazin-1-yl)ethoxy)methyl)-4-fluorobenzoic acid]: the Ki was 0.1 to 0.5 µM in assay [1] (setting [5]) and below 0.1 µM in assay [4]. Besides, the concentration for half-maximal inhibition (IC50) in assay [2] is below 0.2 µM; in assay [3] (setting [6]), 0.2 to 2 µM.

In the case of `CN1CCN(c2nc(N)nc3c2CCc2cc(OCc4ccc(Cl)cc4)ccc2-3)CC1` [Example 1, 8-((4-chlorobenzyl)oxy)-4-(4-methylpiperazin-1-yl)-5,6-dihydrobenzo[h]quinazolin-2-amine], the Ki in assay [1] (setting [5]) and in assay [4] was below 0.1 µM throughout. Further, the half-inhibitory concentration (IC50) in assay [2] and in assay [3] (setting [6]) was below 0.2 µM in each case.

Take `CN1CCN(c2nc(N)nc3c2CCc2cc(OCc4ccccc4)ccc2-3)CC1` [Example 2, 8-(benzyloxy)-4-(4-methylpiperazin-1-yl)-5,6-dihydrobenzo[h]quinazolin-2-amine]: the Ki in assay [1] (Evaluation of H4 Receptor Affinity) and in assay [4] was below 0.1 µM in each case. Further, the IC50 in assay [2] and in assay [3] was below 0.2 µM throughout.

Take `CN1CCN(c2nc(N)nc3c2CCc2cc(OCc4ccsc4)ccc2-3)CC1` [Example 3, 4-(4-methylpiperazin-1-yl)-8-(thiophen-3-ylmethoxy)-5,6-dihydrobenzo[h]quinazolin-2-amine]: the Ki in assay [1] (setting [5]) and in assay [4] was below 0.1 µM throughout. The half-inhibitory concentration (IC50) in assay [2] and in assay [3] (setting [6]) was below 0.2 µM in each case.

As for `Nc1nc2c(c(N3CCN(CCOC[C@H]4CC[C@@H](C(=O)O)CC4)CC3)n1)CCc1cc(OCc3ccc(Cl)cc3)ccc1-2` [Example 12, cis-4-((2-(4-(2-amino-8-((4-chlorobenzyl)oxy)-5,6-dihydrobenzo[h]quinazolin-4-yl)piperazin-1-yl)ethoxy)methyl)cyclohexane-1-carboxylic acid], the Ki in assay [1] (setting [5]) and in assay [4] was below 0.1 µM throughout. The concentration for half-maximal inhibition (IC50) in assay [2] is below 0.2 µM; in assay [3] (setting [6]), 0.2 to 2 µM.

As to `Nc1nc2c(c(N3CCN(CCOC[C@H]4CC[C@H](C(=O)O)CC4)CC3)n1)CCc1cc(OCc3ccc(Cl)cc3)ccc1-2` [Example 13, trans-4-((2-(4-(2-amino-8-((4-chlorobenzyl)oxy)-5,6-dihydrobenzo[h]quinazolin-4-yl)piperazin-1-yl)ethoxy)methyl)cyclohexane-1-carboxylic acid], the Ki in assay [1] (setting [5]) and in assay [4] was below 0.1 µM each time. Besides, the half-maximal inhibitory concentration (IC50) in assay [2] is below 0.2 µM; in assay [3] (setting [6]) it was 0.2 to 2 µM.

For the molecule `Nc1nc2c(c(N3CCN(CCO[C@H]4C[C@@H](C(=O)O)C4)CC3)n1)CCc1cc(OCc3ccc(Cl)cc3)ccc1-2` [Example 14, cis-3-(2-(4-(2-amino-8-((4-chlorobenzyl)oxy)-5,6-dihydrobenzo[h]quinazolin-4-yl)piperazin-1-yl)ethoxy)cyclobutane-1-carboxylic acid], the Ki in assay [1] (setting [5]) and in assay [4] was below 0.1 µM in each case. Besides, the results for the IC50 in assay [2] and in assay [3] (setting [6]) were below 0.2 µM and 0.2 to 2 µM, respectively.

For `Nc1nc2c(c(N3CCN(CCOCCOCc4nn[nH]n4)CC3)n1)CCc1cc(OCc3ccc(Cl)cc3)ccc1-2` [Example 21, 4-(4-(2-(2-((tetrazol-5-yl)methoxy)ethoxy)ethyl)piperazin-1-yl)-8-((4-chlorobenzyl)oxy)-5,6-dihydrobenzo[h]quinazolin-2-amine], the Ki in assay [1] (setting [5]) and in assay [4] was below 0.1 µM in each case. The half-maximal inhibitory concentration (IC50) was below 0.2 µM in assay [2] and 0.2 to 2 µM in assay [3] (setting [6]).

On to `Nc1nc2c(c(N3CCN(CCOCc4nn[nH]n4)CC3)n1)CCc1cc(OCc3ccc(Cl)cc3)ccc1-2` [Example 22, 4-(4-(2-((tetrazol-5-yl)methoxy)ethyl)piperazin-1-yl)-8-((4-chlorobenzyl)oxy)-5,6-dihydrobenzo[h]quinazolin-2-amine], for which the Ki in assay [1] (setting [5]) and in assay [4] was below 0.1 µM in each case. For the same molecule, the IC50 in assay [2] was below 0.2 µM; in assay [3] (setting [6]), 0.2 to 2 µM.

As for `Nc1nc2c(c(N3CCN(CCOC[C@H]4CC[C@H](C(=O)O)CC4)CC3)n1)CCc1cc(OCc3ccc(OC(F)(F)F)cc3)ccc1-2` [Example 29, trans-4-((2-(4-(2-amino-8-((4-(trifluoromethoxy)benzyl)oxy)-5,6-dihydrobenzo[h]quinazolin-4-yl)piperazin-1-yl)ethoxy)methyl)cyclohexane-1-carboxylic acid], the Ki in assay [1] (setting [5]) and in assay [4] was below 0.1 µM in each case. In addition, the concentration for half-maximal inhibition (IC50) in assay [2] and in assay [3] (setting [6]) was below 0.2 µM in each case.

For the molecule `C[C@]1(C(=O)O)C[C@H](OCCN2CCN(c3nc(N)nc4c3CCc3cc(OCc5ccc(OC(F)(F)F)cc5)ccc3-4)CC2)C1` [Example 32, trans-3-(2-(4-(2-amino-8-((4-(trifluoromethoxy)benzyl)oxy)-5,6-dihydrobenzo[h]quinazolin-4-yl)piperazin-1-yl)ethoxy)-1-methylcyclobutane-1-carboxylic acid], the Ki in assay [1] (setting [5]) and in assay [4] was below 0.1 µM in each case. Moreover, the half-maximal inhibitory concentration (IC50) in assay [2] and in assay [3] (setting [6]) was below 0.2 µM throughout.

Turning to `Nc1nc2c(c(N3CCN(CCO[C@H]4C[C@@H](CC(=O)O)C4)CC3)n1)CCc1cc(OCc3ccc(OC(F)(F)F)cc3)ccc1-2` [Example 36, cis-2-(3-(2-(4-(2-amino-8-((4-(trifluoromethoxy)benzyl)oxy)-5,6-dihydrobenzo[h]quinazolin-4-yl)piperazin-1-yl)ethoxy)cyclobutyl)acetic acid], the Ki in assay [1] (setting [5]) and in assay [4] was below 0.1 µM in each case. The IC50 in assay [2] and in assay [3] (setting [6]) was below 0.2 µM each time.

Regarding `Nc1nc2c(c(N3CCN(CCO[C@@H]4CO[C@@H](C(=O)O)C4)CC3)n1)CCc1cc(OCc3ccc(OC(F)(F)F)cc3)ccc1-2` [Example 37, (2R,4S)-4-(2-(4-(2-amino-8-((4-(trifluoromethoxy)benzyl)oxy)-5,6-dihydrobenzo[h]quinazolin-4-yl)piperazin-1-yl)ethoxy)tetrahydrofuran-2-carboxylic acid], the Ki in assay [1] (setting [5]) and in assay [4] was below 0.1 µM throughout. The IC50 in assay [2] and in assay [3] (setting [6]) was below 0.2 µM each time.

Turning to `NC(=O)N1CC(COCCN2CCN(c3nc(N)nc4c3CCc3cc(OCc5ccc(OC(F)(F)F)cc5)ccc3-4)CC2)C1` [Example 39, 3-((2-(4-(2-amino-8-((4-(trifluoromethoxy)benzyl)oxy)-5,6-dihydrobenzo[h]quinazolin-4-yl)piperazin-1-yl)ethoxy)methyl)azetidine-1-carboxamide], the Ki in assay [1] (setting [5]) and in assay [4] was below 0.1 µM in each case. The IC50 in assay [2] and in assay [3] (setting [6]) was below 0.2 µM each time.

Take `CN1CCN(c2nc(N)nc3c2CCc2cc(NS(=O)(=O)c4ccc(Cl)cc4)ccc2-3)CC1` [Example 42, N-(2-amino-4-(4-methylpiperazin-1-yl)-5,6-dihydrobenzo[h]quinazolin-8-yl)-4-chlorobenzenesulfonamide]: the Ki in assay [1] (setting [5]) and in assay [4] was below 0.1 µM throughout. The results for the IC50 in assay [2] and in assay [3] (setting [6]) were below 0.2 µM and 0.2 to 2 µM, respectively.

For `CN1CCN(c2nc(N)nc3c2CCc2cc(NS(=O)(=O)c4ccc(OC(F)(F)F)cc4)ccc2-3)CC1` [Example 54, N-(2-amino-4-(4-methylpiperazin-1-yl)-5,6-dihydrobenzo[h]quinazolin-8-yl)-4-(trifluoromethoxy)benzenesulfonamide], the Ki in assay [1] (setting [5]) and in assay [4] was below 0.1 µM in each case. Further, the IC50 in assay [2] was below 0.2 µM; in assay [3] (setting [6]), 0.2 to 2 µM.

Regarding `CN(C)[C@H]1CCN(c2nc(N)nc3c2CCc2cc(OCc4ccccc4)ccc2-3)C1` [Example 102, (S)-8-(benzyloxy)-4-(3-(dimethylamino)pyrrolidin-1-yl)-5,6-dihydrobenzo[h]quinazolin-2-amine], the figures for the Ki in assay [1] (setting [5]) and in assay [4] were below 0.1 µM and 0.1 to 0.5 µM, respectively. Moreover, the IC50 was 0.2 to 2 µM in assay [2] and below 0.2 µM in assay [3] (setting [6]).
